Laboratory results: patent EP2345639A1, “Cyclic hydroxylamine derivatives, their preparation and use as antioxidants” (ABIOGEN PHARMA S.p.A., priority 2009, dated 2011)
Where two headings read alike, the source gives them in different places.

Legend:
[1] = TEAC method (Trolox Equivalent Antioxidant Capacity Assay); assay type: biochemical; conditions: ratio of gradient to gradient of Trolox; 650 nm, 37 °C, about 90 minutes
From the text: This assay is used to measure the total antioxidant activity of pure substances, biological fluids and plant compounds and is based on the reaction of antioxidants with the cation radical ABTS·^+ (2,2'-azinobis(3-ethylbenzothiazolin-6-sulphonate)). This cation radical is metastable and has to be generated just before the experiment by reacting ABTS with hydrogen peroxide in the presence of HRP. This radical can be reduced, with consequent loss of absorbance, by an antioxidant whose scavenging capacity can be measured spectrophotometrically at 650 nm. The test is carried out at 37 °C and the results are obtained from a comparison with Trolox (a synthetic antioxidant and hydrophilic analogue of vitamin E).
The ABTS solution S1 was prepared as follows: • 20 mg of ABTS were added to 50 mM of citric acid buffer (40 ml) at pH=4.5 and to the resulting solution there was added an aqueous solution of HRP (4.4 mg, 400 µl) and an aqueous solution of H2O2 (10 µl of a 30% solution diluted with 16.3 ml of water).
For each of the compounds (1)-(11), as synthesized above, there was prepared a 600 µM solution in water, methanol or DMSO according to its solubility, as well as a Trolox solution as reference.
Each solution was diluted to produce 6 solutions each at a concentration between 25 µM and 300 µM. From each of the diluted and divided solutions, there were withdrawn 20 µl to which 200 µl of solution S1 were then added.
The decrease in absorbance of each solution thus obtained was monitored at 650 nm until a stable value was reached (about 90 minutes).
For each set of 6 solutions and for the reference trolox solution, the absorption was given in graph form as a function of the amount of compound (nmol) in the solution. The gradient of the straight line obtained by linear interpolation was determined according to the least squares method. The TEAC value of each compound of the invention is given in the table below and is expressed as the ratio between the gradient of the resulting straight line and the gradient of the reference (trolox) straight line.

[2] = Brain-to-plasma concentration ratio in mice; assay type: in vivo, Female CD-1 mice; conditions: female, CD-1, mouse, ip, 25 mg/kg intraperitoneal, area under the curve of brain and plasma concentrations 0 to 60 minutes, read-out: B/P ratio
Protocol: The ability of the compounds of the invention to penetrate the brain was investigated by measuring their brain/plasma (B/P) ratio in mice following intraperitoneal administration.
Female CD-1 mice were used (n=3 for each time period) and received the compounds of the invention by intraperitoneal administration, in 25 mg/kg doses in a 0.5% NaHCO3 buffer (pH 8.3). At predefined intervals following said administration, i.e. 5, 15, 30 and 60 minutes, the mice were killed and both plasma and total brain tissue were collected.
Specifically, after anaesthesia with ether, the animals were bled by blood withdrawal from the abdominal aorta then immediately decapitated. The blood samples were collected into plasma separator tubes containing Li-Heparin as anticoagulant and centrifuged. The resulting plasma was then stored at -20 °C. The brain was rapidly removed from the cranium and weighed, subsequently frozen and stored at -20 °C before treatment by homogenization and HPLC analysis.
The plasma was thawed and mixed with an equal volume of the extraction solution.
1 ml of solution was then extracted by adding 20 µl of 70% HClO4, then centrifuged at 15,500g for 5 minutes and injected into the HPLC.
Each brain was thawed and homogenized with the extraction solution to provide a final composition of 4 ml/1g of tissue by means of an Ultra-Turrax blender and sonicated for 5 minutes. After centrifugation of the homogenate at 15,500g for 5 minutes, the resulting solution was treated with HClO4, as indicated for the plasma. Specific chromatographic conditions had been developed for each analyte, the calibration curve being constructed for plasma and brain homogenate.

[3] = Acid dissociation constants (pKa) by titration; assay type: physicochemical; conditions: pH at semi-neutralization point of titration with 0.1 N NaOH or HCl
Protocol: The following equipment was used during the implementation of all the examples: • for melting point determination a Buchi B-540 instrument was used; • the pKa is the pH at the semi-neutralization point of titration using a Mettler Toledo DL-50 instrument with a 0.1 N NaOH or HC! solution; • the ^1H-NMR spectra were recorded at 300 MHz and the ^13C-NMR spectra were recorded at 75 MHz using a Varian Unity 300 instrument; • spectrophotometric measurements were carried out using a Lambda Perkin Elmer 15 UV/Vis spectrophotometer for the DPPH assay and a Wallac Victor 1420 multilabel counter spectrophotometer.

[4] = test system: doxorubicin-induced cerebral oxidative stress in mice; assay: In vivo assay of cerebral oxidative stress induced in mice by doxorubicin (model and oxidized animals); conditions: for inhibition in vivo at 50 mg/kg / change in vivo at 50 mg/kg: Mus musculus; for inhibition in vivo at 50 mg/kg: overall, read-out: inhibition of the doxorubicin effect; for change in vivo at 50 mg/kg / mean % effect relative to doxorubicin alone, all parameters (Vehicle): oxidized mice; for mean % effect relative to doxorubicin alone, all parameters (Vehicle): computed as a function of the vehicle
Protocol: The assay was carried out on compounds (1)-(5) and (7)-(11) and on edaravone (E) as comparative compound.
10 mice were used for each treatment group. For each compound 50 mg/kg were administered intraperitoneally (IP) for three consecutive days (day 0, 1 and 2); half the animals (5) also received IP 16.7 mg/kg of doxorubicin immediately after the first treatment (day 0). On the day after the last administration (day 3) the animals were killed by neck dislocation and the brains were removed, weighed and frozen in liquid nitrogen.
For the analyses of oxidative stress, 100 mg/ml of brain homogenate was prepared in HEB^(*) buffer (pH 7.4 EDTA/HEPES^(**)) containing a mixture of enzyme inhibitors (Leupeptin, Pepstatin, Aprotinin, BHA).
The evaluation parameters were: • BrW/BWi: ratio between final brain weight and initial body weight (day 0); • Prot. Hmg: total proteins in the homogenate (BCA method, i.e. bicinchoninic acid); • Prot. Ox: oxidized proteins in the Hmg by means of a colorimetric method using dinitrophenylhydrazone (DNPH); • GSH: reduced glutathione in the supernatant (sn) of the Hmg, obtained after precipitation with metaphosphoric acid (MPA), by means of a colorimetric method using dithiodinitrobenzene (DTNB); • CAT: catalase in the Hmg by a colorimetric method using potassium dichromate; • SOD: superoxide dismutase by a colorimetric method using SOD Reagent (xanthine, EDTA, nitroblue tetrazole, Na2CO3, BSA, i.e. bovine serum albumin); • GST: glutathione S-transferase in the supernatant by a colorimetric method using chlorodinitrobenzene (CDNB) and GSH; and • GPx: glutathione peroxidase in the supernatant after addition of GSH and t-BuOOH, heating and precipitation with MPA; followed by GSH method with DTNB. The assay was performed on the compounds (1)-(5) and (7)-(11) and on edaravone (E), as comparative compound.
The mean effect (n=5 experiments) of doxorubicin (D), i.e. "oxidized" animal, relative to the vehicle (V), the vehicle representing the healthy animal.
All the parameters, with the exclusion of Brain/BWi and Prot. Hmg, were normalized for total Hmg proteins. The D value standard deviations and the % incidence relative to V are given in italics.
The effect of the tested compounds on the "oxidized" animals was given as % inhibition relative to the percentage change due to doxorubicin alone. The effect of the compounds on the oxidized animals can be expressed both as a function of the values of the vehicle (healthy, vehicle only) and as a function of the value of its own (healthy, compound only): • Vehicle: percentage [(Compound+D)/V]x100/[(V+D)/V]x100 • Its own: percentage [(Compound+D)/Compound]x100/[(V+D)/V]x100
Again in this case, the mean % effect relative to doxorubicin alone could be given for all the parameters simultaneously, as an approximate index of effectiveness on the cerebral oxidative state of the animal.

[5] = ip, compared with its own vehicle
[6] = ip, with respect to the vehicle
[7] = ip, % inhibition relative to change due to doxorubicin alone, vs its own, read-out: Brain/BWi its own
[8] = ip, % inhibition relative to change due to doxorubicin alone, vs its own, read-out: CAT/pr its own
[9] = ip, % inhibition relative to change due to doxorubicin alone, vs its own, read-out: GPX/pr its own
[10] = ip, % inhibition relative to change due to doxorubicin alone, vs its own, read-out: GSH/pr its own
[11] = ip, % inhibition relative to change due to doxorubicin alone, vs its own, read-out: GST/pr its own
[12] = ip, % inhibition relative to change due to doxorubicin alone, vs its own, read-out: Prot. Hmg its own
[13] = ip, % inhibition relative to change due to doxorubicin alone, vs its own, read-out: Prot. Ox/pr its own
[14] = ip, % inhibition relative to change due to doxorubicin alone, vs its own, read-out: SOD/pr its own
[15] = ip, % inhibition relative to change due to doxorubicin alone, vs vehicle, read-out: Brain/BWi vehicle
[16] = ip, % inhibition relative to change due to doxorubicin alone, vs vehicle, read-out: CAT/pr vehicle
[17] = ip, % inhibition relative to change due to doxorubicin alone, vs vehicle, read-out: GPX/pr vehicle
[18] = ip, % inhibition relative to change due to doxorubicin alone, vs vehicle, read-out: GSH/pr vehicle
[19] = ip, % inhibition relative to change due to doxorubicin alone, vs vehicle, read-out: GST/pr vehicle
[20] = ip, % inhibition relative to change due to doxorubicin alone, vs vehicle, read-out: Prot. Hmg vehicle
[21] = ip, % inhibition relative to change due to doxorubicin alone, vs vehicle, read-out: Prot. Ox/pr vehicle
[22] = ip, % inhibition relative to change due to doxorubicin alone, vs vehicle, read-out: SOD/pr vehicle
[23] = 50 mg/kg IP x3 days + doxorubicin, computed as a function of its own (healthy, compound only), read-out: mean % effect relative to doxorubicin alone, all parameters (Its own)
[24] = 50 mg/kg IP x3 days + doxorubicin

Compound | TEAC [1] | Kp [2] | pKa1 [3] | pKa2 [3] | inhibition in vivo at 50 mg/kg [4, 5] [%] | change in vivo at 50 mg/kg [4, 7] [%] | change in vivo at 50 mg/kg [4, 8] [%] | change in vivo at 50 mg/kg [4, 9] [%] | change in vivo at 50 mg/kg [4, 10] [%] | change in vivo at 50 mg/kg [4, 11] [%] | change in vivo at 50 mg/kg [4, 12] [%] | change in vivo at 50 mg/kg [4, 13] [%] | change in vivo at 50 mg/kg [4, 14] [%] | change in vivo at 50 mg/kg [4, 15] [%] | change in vivo at 50 mg/kg [4, 16] [%] | change in vivo at 50 mg/kg [4, 17] [%] | change in vivo at 50 mg/kg [4, 18] [%] | change in vivo at 50 mg/kg [4, 19] [%] | change in vivo at 50 mg/kg [4, 20] [%] | change in vivo at 50 mg/kg [4, 21] [%] | also measured
CC1(C)CC(=O)C(C2COCCN2O)C(=O)C1 (stereo not shown) [(4), 2-(4-hydroxymorpholin-3-yl)-5,5-dimethylcyclohexane-1,3-dione] | 1.2 | > 0.1 | 2.28 | 6.15 | ~85 | -26.1 | -102 | -105 | -77.6 | -147 | -106 | 19.2 | -68.5 | -18.8 | -94.7 | -83.8 | -34.4 | -120 | -80.7 | -4.1 | inhibition in vivo at 50 mg/kg [4, 6]: ≥ 50%; change in vivo at 50 mg/kg [4, 22]: -28.7%; change in vivo at 50 mg/kg [4, 23]: -84.1%; mean % effect relative to doxorubicin alone, all parameters (Vehicle) [4, 24]: -58.1%
O=C1CC(c2ccccc2)CC(=O)C1C1COCCN1O (stereo not shown) [(5), 2-(4-hydroxymorpholin-3-yl)-5-phenylcyclohexane-1,3-dione] | 1.2 | > 0.1 | 2.71 | 6.44 | 45 to 50 | -128 | -24.2 | -14.1 | -40.8 | -27.5 | -42.2 | -43.6 | 3.5 | -49.3 | 7.6 | -7.1 | -21.6 | -8.8 | -12 | -15.7 | change in vivo at 50 mg/kg [4, 22]: -4.2%; change in vivo at 50 mg/kg [4, 23]: -47.5%
O=c1oc2ccccc2c(O)c1C1COCCN1O (stereo not shown) [(10), 4-hydroxy-3-(4-hydroxymorpholin-3-yl)-2H-chromen-2-one] | 1.4 | > 0.1 | 2.70 | 6.14 | ~85 | -65.2 | -115 | -117 | -87.2 | -128 | -113 | -45.3 | -18.9 | -73.9 | -34.1 | -103 | -14.4 | -84.6 | -43.4 | -32.6 | inhibition in vivo at 50 mg/kg [4, 6]: ≥ 50%; change in vivo at 50 mg/kg [4, 22]: 2.1%; change in vivo at 50 mg/kg [4, 23]: -86.2%; mean % effect relative to doxorubicin alone, all parameters (Vehicle) [4, 24]: -48.0%
